The numbers were not newly measured in EP0127274A2, “Esters of metronidazole and compositions containing them” (THE UPJOHN COMPANY, priority 1983, dated 1984), which cites them from elsewhere.

For this data set the following is noted: background statement.

Take `Cc1ncc([N+](=O)[O-])n1CCO` [metronidazole, 1-(O-hydroxyethyl)-2-methyl-5-nitroimidazole]: the solubility in water entry is reported as “approximately 10 mg/ml”.
